Where two headings read alike, the source gives them in different places.

IC50 and inhibition in vivo data for 13 compounds are collected here from patent publication US9296759B2, “Amino-oxazine and amino-dihydrothiazine compounds as beta-secretase modulators and methods of use” (AMGEN INC., priority 2011, dated 2016).

The target of assay [1] is BACE 1 (beta secretase enzyme) (Homo sapiens (Human), UniProt P56817). The experiment in a line: In vitro enzymatic BACE FRET assay. The assay is classed as biochemical. The note with it: average IC50. Summed up: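 The enzyme was tested in 0.05 M acetate, pH 4.2, with 10% DMSO final and 100 uM genapol. The reaction was started with 50 nM quenched FRET peptide substrate, incubated one hour and stopped with Tris to neutral pH. Cleavage was read as fluorescence ([…]).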
Chain of BACE 1 (beta secretase enzyme) (P56817 46-501): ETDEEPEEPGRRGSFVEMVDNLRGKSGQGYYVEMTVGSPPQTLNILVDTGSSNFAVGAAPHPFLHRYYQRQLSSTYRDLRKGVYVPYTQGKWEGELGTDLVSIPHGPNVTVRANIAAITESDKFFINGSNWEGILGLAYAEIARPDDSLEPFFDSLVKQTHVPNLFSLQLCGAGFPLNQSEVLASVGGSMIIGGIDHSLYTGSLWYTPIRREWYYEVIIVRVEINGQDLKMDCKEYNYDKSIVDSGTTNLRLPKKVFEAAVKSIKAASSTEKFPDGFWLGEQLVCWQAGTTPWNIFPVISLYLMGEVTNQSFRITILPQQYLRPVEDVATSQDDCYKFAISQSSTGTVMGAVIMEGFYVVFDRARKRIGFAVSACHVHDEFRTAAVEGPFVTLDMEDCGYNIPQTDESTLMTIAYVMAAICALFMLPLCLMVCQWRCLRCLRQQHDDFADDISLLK

The subject of assay [2] is Aβ40 in conditioned medium of cells stably expressing Amyloid Precursor Protein (APP). The experiment in a line: In vitro BACE cell-based assay (HEK cell assay, Aβ40 sandwich ELISA). The following applies: Homo sapiens, HEK293; average IC50, Aβ40, 24 h incubation. Summed up:
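Aβ40 in supernatants was measured by time-resolved fluorescence sandwich ELISA using pAb40 capture and biotinylated 6E10 detection, with antibody incubations at 4 °C. Stable APP cells were exposed to compounds for 24 h in a 10-point series (top dose 100 or 10 µM, 0.1% DMSO). IC50 was fitted from the concentration-response.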
(ELISA stands for enzyme-linked immunosorbent assay.)

The target of assay [3] is Cathepsin D (Homo sapiens (Human), UniProt P07339). The experiment in a line: In vitro enzymatic Cat D (Cathepsin D) FRET assay. The following applies: average IC50. The assay is classed as biochemical. Summed up: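 CHO-expressed recombinant enzyme in 0.05 M citrate pH 3.5, 5 mM CHAPS, 10% DMSO final; reaction started with 20 nM quenched-peptide FRET substrate (cleavage site spanned by fluorophore/quencher), 1 h incubation.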
Chain of Cathepsin D (P07339 65-412, species assumed): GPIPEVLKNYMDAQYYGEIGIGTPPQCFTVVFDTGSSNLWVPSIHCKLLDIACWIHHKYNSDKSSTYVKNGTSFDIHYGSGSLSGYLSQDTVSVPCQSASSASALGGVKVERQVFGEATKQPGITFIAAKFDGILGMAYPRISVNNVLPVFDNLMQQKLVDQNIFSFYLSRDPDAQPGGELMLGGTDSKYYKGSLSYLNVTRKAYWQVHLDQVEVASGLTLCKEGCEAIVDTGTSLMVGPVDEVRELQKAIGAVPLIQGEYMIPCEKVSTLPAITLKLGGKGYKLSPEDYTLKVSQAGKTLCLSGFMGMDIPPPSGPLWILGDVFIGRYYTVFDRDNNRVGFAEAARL

The test system of assay [4] is Abeta 40. The experiment in a line: In vivo inhibition of beta-secretase: Abeta 40 reduction in CSF and brain of the rat. The note with it: 10 mpk, after 4 hrs. From the text: In Vivo Inhibition of Beta-Secretase
Several animal models, including mouse, rat, dog, and monkey, may be used to screen for inhibition of beta-secretase activity in vivo following administration of a test compound sample. Animals used in this invention can be wild type, transgenic, or gene knockout animals. For example, the Tg2576 mouse model, prepared and conducted as described in Hsiao et al., 1996, Science 274, 99-102, and other non-transgenic or gene knockout animals are useful to analyze in vivo inhibition of Amyloid beta peptide (Abeta) production in the presence of inhibitory test compounds. Generally, 2 to 18 month old Tg2576 mice, gene knockout mice or non-transgenic animals are administered test compounds formulated in vehicles, such as cyclodextran, phosphate buffers, hydroxypropyl methylcellulose or other suitable vehicles. One to twenty-four hours following the administration of compound, animals are sacrificed, and brains as well as cerebrospinal fluid (CSF) and plasma are removed for analysis of A-beta levels and drug or test compound concentrations (Dovey et al., 2001, Journal of Neurochemistry, 76, 173-181) Beginning at time 0, animals are administered by oral gavage, or other means of delivery such as intravenous injection, an inhibitory test compound of up to 100 mg/kg in a standard, conventional formulation, such as 2% hydroxypropyl methylcellulose, 1% Tween80. A separate group of animals receive 2% hydroxypropyl methylcellulose, 1% Tween80 alone, containing no test compound, and serve as a vehicle-control group. At the end of the test period, animals are sacrificed and brain tissues, plasma or cerebrospinal fluid are collected. Brains are either homogenized in 10 volumes (w/v) of 0.2% diethylamine (DEA) in 50 mM NaCl (Best et al., 2005, Journal of Pharmacology and Experimental Therapeutics, 313, 902-908), or in 10 volumes of 0.5% TritonX-100 in Tris-buffered saline (pH at about 7.6). Homogenates are centrifuged at 355,000 g, 4° C. for 30 minutes. CSF or brain supernatants are then analyzed for the presence of A-beta peptide by specific sandwich ELISA assays based on ECL (Electrochemiluminescence) technology. For example, rat Abeta40 is measured using biotinylated-4G8 (Signet) as a capture antibody and Fab40 (an in-house antibody specific to the C-terminal of Abeta40) as a detection antibody. For example, 4 hours after administration of 30 mg/kg oral dose of the test compound in 2% hydroxypropyl methylcellulose, 1% Tween80 (pH2.2) to 200 g male Sprague Dawley rats, amyloid beta peptide levels are measured for reduction by X % and Y % in cerebrospinal fluid and brain, respectively, when compared to the levels measured in the vehicle-treated rats.
• Oral: 2% HPMC, 1% Tween80, pH 2.2 • IV: 5% EtOH, 45% Propylene glycol in 5% Dextrose
The compounds of the invention may be shown to reduce the formation and/or deposition of amyloid beta peptide in the cerebrospinal fluid (CSF) as well as in the brain of a mouse or rat at either 3 mpk, 10 mpk or 30 mpk (mpk=mg compound per kg weight of the animal) dosing concentrations after 4 hrs.

[5] abbreviates: Abeta 40, rat CSF, read-out: % reduction of rat CSF levels at 10 pmk.
Setting [6] is: Abeta 40, rat brain, read-out: % reduction of rat brain levels at 10 mpk.

For the compound `NC1=N[C@@]2(CCO1)c1cc(NC(=O)c3ccc(Cl)cn3)ccc1Oc1c2cc(C2=CCCOC2)nc1F` [Example 39, N-((5S)-2′-amino-3-(5,6-dihydro-2H-pyran-3-yl)-1-fluoro-5′,6′-dihydrospiro[chromeno[2,3-c]pyridine-5,4′-[1,3]oxazin]-7-yl)-5-chloro-2-pyridinecarboxamide], the results for the IC50 in assay [1], in assay [2] and in assay [3] were 2 nM, 0.5 nM and over 400000 nM, respectively. The inhibition in vivo at 10 mg/kg came to 85% in assay [4] (setting [5]) and 80% in assay [4] (setting [6]).

In the case of `COc1cnc(C(=O)Nc2ccc3c(c2)[C@@]2(CCOC(N)=N2)c2cc(C4=CCCOC4)nc(F)c2O3)cn1` [Example 51, N-((5S)-2′-amino-3-(5,6-dihydro-2H-pyran-3-yl)-1-fluoro-5′,6′-dihydrospiro[chromeno[2,3-c]pyridine-5,4′-[1,3]oxazin]-7-yl)-5-methoxy-2-pyrazinecarboxamide], the values for the IC50 in assay [1], in assay [2] and in assay [3] were 2.7 nM, 4.2 nM and over 400000 nM, respectively. The inhibition in vivo at 10 mg/kg in assay [4] (setting [5]) was 85%; in assay [4] (setting [6]) it was 76%.

Consider `COc1cnc(C(=O)Nc2ccc3c(c2)[C@@]2(CCOC(N)=N2)c2cc(C4CC4)nc(F)c2O3)cn1` [Example 54, N-((5S)-2′-amino-3-cyclopropyl-1-fluoro-5′,6′-dihydrospiro[chromeno[2,3-c]pyridine-5,4′-[1,3]oxazin]-7-yl)-5-methoxy-2-pyrazinecarboxamide], for which the values for the IC50 in assay [1], in assay [2] and in assay [3] were 5 nM, 9.6 nM and 269000 nM, respectively. In addition, the figures for the inhibition in vivo at 10 mg/kg in assay [4] (setting [5]) and in assay [4] (setting [6]) were 77% and 65%, respectively.

Take `NC1=N[C@@]2(CCO1)c1cc(NC(=O)c3ccc(Cl)cn3)ccc1Oc1cnc(C3=CCCOC3)cc12` [Example 59, N-((5S)-2′-amino-3-(5,6-dihydro-2H-pyran-3-yl)-5′,6′-dihydrospiro[chromeno[2,3-c]pyridine-5,4′-[1,3]oxazin]-7-yl)-5-chloro-2-pyridinecarboxamide]: the IC50 (in general, the midpoint of a concentration-inhibition curve) in assay [1] stood at 3 nM; in assay [2] it was 0.5 nM; in assay [3], 400000 nM. In addition, the inhibition in vivo at 10 mg/kg came out at 57% in assay [4] (setting [5]) and 50% in assay [4] (setting [6]).

On to `NC1=N[C@@]2(CCO1)c1cc(NC(=O)c3ccc(Cl)cn3)ccc1Oc1c2cc(C2=CCOCC2)nc1F` [Example 63, N-((5S)-2′-amino-3-(3,6-dihydro-2H-pyran-4-yl)-1-fluoro-5′,6′-dihydrospiro[chromeno[2,3-c]pyridine-5,4′-[1,3]oxazin]-7-yl)-5-chloro-2-pyridinecarboxamide], for which the IC50 is 1.4 nM in assay [1], 0.1 nM in assay [2] and 400000 nM in assay [3]. The inhibition in vivo at 10 mg/kg in assay [4] (setting [5]) is 80%; in assay [4] (setting [6]), 75%.

Consider `COc1cnc(C(=O)Nc2ccc3c(c2)[C@@]2(CCOC(N)=N2)c2cc(C4=CCOCC4)nc(F)c2O3)cn1` [Example 65, N-((5S)-2′-amino-3-(3,6-dihydro-2H-pyran-4-yl)-1-fluoro-5′,6′-dihydrospiro[chromeno[2,3-c]pyridine-5,4′-[1,3]oxazin]-7-yl)-5-methoxy-2-pyrazinecarboxamide], for which the values for the IC50 in assay [1], in assay [2] and in assay [3] were 0.9 nM, 0.051 nM and 400000 nM, respectively. The inhibition in vivo at 10 mg/kg came out at 83% in assay [4] (setting [5]) and 71% in assay [4] (setting [6]).

Consider `COc1cnc(C(=O)Nc2ccc3c(c2)[C@@]2(CCSC(N)=N2)c2cc(C4=CCCOC4)nc(F)c2O3)cn1` [Example 66, N-((5S)-2′-amino-3-(5,6-dihydro-2H-pyran-3-yl)-1-fluoro-5′,6′-dihydrospiro[chromeno[2,3-c]pyridine-5,4′-[1,3]thiazin]-7-yl)-5-methoxy-2-pyrazinecarboxamide], for which the IC50 in assay [1] came to 1.8 nM; in assay [2] it was 1 nM; in assay [3], 179000 nM. For the same compound, the inhibition in vivo at 10 mg/kg was determined as 77% in assay [4] (setting [5]) and 66% in assay [4] (setting [6]).

Regarding `COc1cnc(C(=O)Nc2ccc3c(c2)[C@@]2(CCSC(N)=N2)c2cc(C4=CCOCC4)nc(F)c2O3)cn1` [Example 67, N-((5S)-2′-amino-3-(3,6-dihydro-2H-pyran-4-yl)-1-fluoro-5′,6′-dihydrospiro[chromeno[2,3-c]pyridine-5,4′-[1,3]thiazin]-7-yl)-5-methoxy-2-pyrazinecarboxamide], the IC50 in assay [1] was determined as 1.6 nM; in assay [2], 1.4 nM; in assay [3], 160000 nM. The inhibition in vivo at 10 mg/kg in assay [4] (setting [5]) stood at 66%; in assay [4] (setting [6]), 58%.

With `NC1=N[C@@]2(CCS1)c1cc(NC(=O)c3ccc(Cl)cn3)ccc1Oc1c2cc(C2=CCCOC2)nc1F` [Example 68, N-((5S)-2′-amino-3-(5,6-dihydro-2H-pyran-3-yl)-1-fluoro-5′,6′-dihydrospiro[chromeno[2,3-c]pyridine-5,4′-[1,3]thiazin]-7-yl)-5-chloro-2-pyridinecarboxamide], the IC50 in assay [1] was 0.8 nM; in assay [2], 0.5 nM; in assay [3], 217000 nM. For the same compound, the results for the inhibition in vivo at 10 mg/kg in assay [4] (setting [5]) and in assay [4] (setting [6]) were 77% and 73%, respectively.

For `COc1cnc(C(=O)Nc2ccc3c(c2)[C@@]2(CCOC(N)=N2)c2cc(-c4cncc(F)c4)nc(F)c2O3)cn1` [Example 70, N-((5S)-2′-amino-1-fluoro-3-(5-fluoro-3-pyridinyl)-5′,6′-dihydrospiro[chromeno[2,3-c]pyridine-5,4′-[1,3]oxazin]-7-yl)-5-methoxy-2-pyrazinecarboxamide], the IC50 in assay [1] came to 1.3 nM; in assay [2], 0.6 nM; in assay [3] it was 400000 nM. Besides, the inhibition in vivo at 10 mg/kg was determined as 70% in assay [4] (setting [5]) and 59% in assay [4] (setting [6]).

For the compound `NC1=N[C@@]2(CCO1)c1cc(NC(=O)c3ccc(Cl)cn3)ccc1Oc1c2cc(-c2cncc(F)c2)nc1F` [Example 71, N-((5S)-2′-amino-1-fluoro-3-(5-fluoro-3-pyridinyl)-5′,6′-dihydrospiro[chromeno[2,3-c]pyridine-5,4′-[1,3]oxazin]-7-yl)-5-chloro-2-pyridinecarboxamide], the IC50 in assay [1] worked out at 0.6 nM; in assay [2], 0.3 nM; in assay [3], 400000 nM. The results for the inhibition in vivo at 10 mg/kg in assay [4] (setting [5]) and in assay [4] (setting [6]) were 79% and 70%, respectively.

For the compound `NC1=N[C@@]2(CCO1)c1cc(NC(=O)c3ccc(F)cn3)ccc1Oc1c2cc(C2=CCOCC2)nc1F` [Example 72, N-((5S)-2′-amino-3-(3,6-dihydro-2H-pyran-4-yl)-1-fluoro-5′,6′-dihydrospiro[chromeno[2,3-c]pyridine-5,4′-[1,3]oxazin]-7-yl)-5-fluoro-2-pyridinecarboxamide], the IC50 in assay [1] was 1.1 nM; in assay [2] it was 0.2 nM; in assay [3], 358000 nM. The figures for the inhibition in vivo at 10 mg/kg in assay [4] (setting [5]) and in assay [4] (setting [6]) were 78% and 72%, respectively.

For `NC1=N[C@@]2(CCO1)c1cc(NC(=O)c3ccc(Cl)cn3)ccc1Oc1ncc(C3CC3)cc12` [Example 73, N-((5S)-2′-amino-3-cyclopropyl-5′,6′-dihydrospiro[chromeno[2,3-b]pyridine-5,4′-[1,3]oxazin]-7-yl)-5-chloro-2-pyridinecarboxamide], the concentration for half-maximal inhibition (IC50) amounted to 12.7 nM in assay [1], 3.2 nM in assay [2] and 433000 nM in assay [3]. In addition, the inhibition in vivo at 10 mg/kg in assay [4] (setting [5]) is 38%; in assay [4] (setting [6]) it was 7%.
